Laboratory results as given in ChEMBL document CHEMBL1147725, “Identification and biological characterization of 6-aryl-7-isopropylquinazolinones as novel TRPV1 antagonists that are effective in models of chronic pain” (J Med Chem, 2006).
Converted amounts (≈) assume the structure as drawn.

Assays:
[1] = Plasma concentration in rat at 3 mg/kg, po after 9 hrs; type: ADME, organism-based; design: dose 3 mg/kg, route oral; details: Wistar Han
[2] = test system: Rattus norvegicus; assay: Concentration in rat brain at 1 mg/kg, iv after 4 hrs; type: ADME, organism-based, Wistar Han; design: dose 1 mg/kg, route intravenous; details: in vivo
[3] = Plasma concentration in rat at 3 mg/kg, po after 24 hrs; type: ADME, organism-based; design: dose 3 mg/kg, route oral; details: Wistar Han
[4] = test system: Rattus norvegicus; assay: Concentration in rat brain at 3 mg/kg, po after 0.16 hrs; type: ADME, organism-based, Wistar Han; design: dose 3 mg/kg, route oral; details: in vivo
[5] = test system: Rattus norvegicus; assay: Concentration in rat brain at 3 mg/kg, po after 0.5 hrs; type: ADME, organism-based, Wistar Han; design: dose 3 mg/kg, route oral; details: in vivo
[6] = test system: Rattus norvegicus; assay: Concentration in rat brain at 3 mg/kg, po after 1 hrs; type: ADME, organism-based, Wistar Han; design: dose 3 mg/kg, route oral; details: in vivo
[7] = test system: Rattus norvegicus; assay: Concentration in rat brain at 3 mg/kg, po after 1.5 hrs; type: ADME, organism-based, Wistar Han; design: dose 3 mg/kg, route oral; details: in vivo
[8] = test system: Rattus norvegicus; assay: Concentration in rat brain at 3 mg/kg, po after 2 hrs; type: ADME, organism-based, Wistar Han; design: dose 3 mg/kg, route oral; details: in vivo
[9] = test system: Rattus norvegicus; assay: Concentration in rat brain at 3 mg/kg, po after 4 hrs; type: ADME, organism-based, Wistar Han; design: dose 3 mg/kg, route oral; details: in vivo
[10] = test system: Rattus norvegicus; assay: Concentration in rat brain at 3 mg/kg, po after 6 hrs; type: ADME, organism-based, Wistar Han; design: dose 3 mg/kg, route oral; details: in vivo
[11] = test system: Rattus norvegicus; assay: Concentration in rat brain at 3 mg/kg, po after 9 hrs; type: ADME, organism-based, Wistar Han; design: dose 3 mg/kg, route oral; details: in vivo
[12] = test system: Rattus norvegicus; assay: Concentration in rat brain at 3 mg/kg, po after 18 hrs; type: ADME, organism-based, Wistar Han; design: dose 3 mg/kg, route oral; details: in vivo
[13] = test system: Rattus norvegicus; assay: Concentration in rat brain at 3 mg/kg, po after 24 hrs; type: ADME, organism-based, Wistar Han; design: dose 3 mg/kg, route oral; details: in vivo
[14] = Plasma concentration in rat at 10 mg/kg, po after 0.16 hrs; type: ADME, organism-based; design: dose 10 mg/kg, route oral; details: Wistar Han
[15] = Plasma concentration in rat at 10 mg/kg, po after 0.5 hrs; type: ADME, organism-based; design: dose 10 mg/kg, route oral; details: Wistar Han
[16] = Plasma concentration in rat at 10 mg/kg, po after 1 hrs; type: ADME, organism-based; design: dose 10 mg/kg, route oral; details: Wistar Han
[17] = Plasma concentration in rat at 10 mg/kg, po after 1.5 hrs; type: ADME, organism-based; design: dose 10 mg/kg, route oral; details: Wistar Han
[18] = Plasma concentration in rat at 10 mg/kg, po after 2 hrs; type: ADME, organism-based; design: dose 10 mg/kg, route oral; details: Wistar Han
[19] = Plasma concentration in rat at 10 mg/kg, po after 4 hrs; type: ADME, organism-based; design: dose 10 mg/kg, route oral; details: Wistar Han
[20] = Plasma concentration in rat at 10 mg/kg, po after 6 hrs; type: ADME, organism-based; design: dose 10 mg/kg, route oral; details: Wistar Han
[21] = Plasma concentration in rat at 10 mg/kg, po after 9 hrs; type: ADME, organism-based; design: dose 10 mg/kg, route oral; details: Wistar Han
[22] = Plasma concentration in rat at 10 mg/kg, po after 18 hrs; type: ADME, organism-based; design: dose 10 mg/kg, route oral; details: Wistar Han
[23] = Plasma concentration in rat at 10 mg/kg, po after 24 hrs; type: ADME, organism-based; design: dose 10 mg/kg, route oral; details: Wistar Han
[24] = test system: Rattus norvegicus; assay: Concentration in rat brain at 10 mg/kg, po after 0.16 hrs; type: ADME, organism-based, Wistar Han; design: dose 10 mg/kg, route oral; details: in vivo
[25] = test system: Rattus norvegicus; assay: Concentration in rat brain at 10 mg/kg, po after 0.5 hrs; type: ADME, organism-based, Wistar Han; design: dose 10 mg/kg, route oral; details: in vivo
[26] = test system: Rattus norvegicus; assay: Concentration in rat brain at 10 mg/kg, po after 1 hrs; type: ADME, organism-based, Wistar Han; design: dose 10 mg/kg, route oral; details: in vivo
[27] = test system: Rattus norvegicus; assay: Concentration in rat brain at 10 mg/kg, po after 1.5 hrs; type: ADME, organism-based, Wistar Han; design: dose 10 mg/kg, route oral; details: in vivo
[28] = test system: Rattus norvegicus; assay: Concentration in rat brain at 10 mg/kg, po after 2 hrs; type: ADME, organism-based, Wistar Han; design: dose 10 mg/kg, route oral; details: in vivo
[29] = test system: Rattus norvegicus; assay: Concentration in rat brain at 10 mg/kg, po after 4 hrs; type: ADME, organism-based, Wistar Han; design: dose 10 mg/kg, route oral; details: in vivo
[30] = test system: Rattus norvegicus; assay: Concentration in rat brain at 10 mg/kg, po after 6 hrs; type: ADME, organism-based, Wistar Han; design: dose 10 mg/kg, route oral; details: in vivo
[31] = test system: Rattus norvegicus; assay: Concentration in rat brain at 10 mg/kg, po after 9 hrs; type: ADME, organism-based, Wistar Han; design: dose 10 mg/kg, route oral; details: in vivo
[32] = test system: Rattus norvegicus; assay: Concentration in rat brain at 10 mg/kg, po after 18 hrs; type: ADME, organism-based, Wistar Han; design: dose 10 mg/kg, route oral; details: in vivo
[33] = test system: Rattus norvegicus; assay: Concentration in rat brain at 10 mg/kg, po after 24 hrs; type: ADME, organism-based, Wistar Han; design: dose 10 mg/kg, route oral; details: in vivo
[34] = Plasma concentration in rat at 3 mg/kg, po after 18 hrs; type: ADME, organism-based; design: dose 3 mg/kg, route oral; details: Wistar Han
[35] = molecular target: Transient receptor potential cation channel subfamily V member 1 (Homo sapiens, UniProt Q8NER1); assay: Inhibition of calcium influx evoked by capsaicin in human TRPV1 expressing cells by fluorescence assay; type: functional
Chain of Transient receptor potential cation channel subfamily V member 1 (Homo sapiens, UniProt Q8NER1) (Q8NER1 whole entry): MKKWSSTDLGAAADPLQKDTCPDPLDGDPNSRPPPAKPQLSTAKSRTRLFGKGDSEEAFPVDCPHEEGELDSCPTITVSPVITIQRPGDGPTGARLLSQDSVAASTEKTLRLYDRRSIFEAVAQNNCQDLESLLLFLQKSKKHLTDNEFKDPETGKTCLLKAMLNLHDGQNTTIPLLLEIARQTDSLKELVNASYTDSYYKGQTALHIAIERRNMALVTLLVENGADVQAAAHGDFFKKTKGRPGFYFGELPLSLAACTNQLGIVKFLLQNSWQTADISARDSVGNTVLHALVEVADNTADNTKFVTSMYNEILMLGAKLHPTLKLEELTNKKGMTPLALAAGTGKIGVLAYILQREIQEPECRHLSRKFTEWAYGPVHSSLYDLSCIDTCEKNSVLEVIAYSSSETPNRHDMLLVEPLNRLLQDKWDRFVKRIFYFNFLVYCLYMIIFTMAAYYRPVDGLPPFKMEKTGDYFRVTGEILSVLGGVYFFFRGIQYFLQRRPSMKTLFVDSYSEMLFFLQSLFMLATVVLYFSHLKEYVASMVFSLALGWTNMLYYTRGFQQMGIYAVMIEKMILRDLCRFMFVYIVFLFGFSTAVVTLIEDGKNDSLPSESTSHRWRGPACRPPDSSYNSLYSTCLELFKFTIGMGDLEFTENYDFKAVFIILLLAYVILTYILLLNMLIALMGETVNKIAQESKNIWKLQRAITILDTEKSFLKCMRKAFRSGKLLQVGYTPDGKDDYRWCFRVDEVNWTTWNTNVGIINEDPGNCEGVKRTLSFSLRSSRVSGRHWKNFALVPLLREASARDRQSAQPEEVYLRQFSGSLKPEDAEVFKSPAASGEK

[36] = molecular target: Transient receptor potential cation channel subfamily V member 1 (Rattus norvegicus, UniProt O35433); assay: Inhibition of low pH activation of rat TRPV1; type: functional
Chain of Transient receptor potential cation channel subfamily V member 1 (Rattus norvegicus, UniProt O35433) (O35433 whole entry): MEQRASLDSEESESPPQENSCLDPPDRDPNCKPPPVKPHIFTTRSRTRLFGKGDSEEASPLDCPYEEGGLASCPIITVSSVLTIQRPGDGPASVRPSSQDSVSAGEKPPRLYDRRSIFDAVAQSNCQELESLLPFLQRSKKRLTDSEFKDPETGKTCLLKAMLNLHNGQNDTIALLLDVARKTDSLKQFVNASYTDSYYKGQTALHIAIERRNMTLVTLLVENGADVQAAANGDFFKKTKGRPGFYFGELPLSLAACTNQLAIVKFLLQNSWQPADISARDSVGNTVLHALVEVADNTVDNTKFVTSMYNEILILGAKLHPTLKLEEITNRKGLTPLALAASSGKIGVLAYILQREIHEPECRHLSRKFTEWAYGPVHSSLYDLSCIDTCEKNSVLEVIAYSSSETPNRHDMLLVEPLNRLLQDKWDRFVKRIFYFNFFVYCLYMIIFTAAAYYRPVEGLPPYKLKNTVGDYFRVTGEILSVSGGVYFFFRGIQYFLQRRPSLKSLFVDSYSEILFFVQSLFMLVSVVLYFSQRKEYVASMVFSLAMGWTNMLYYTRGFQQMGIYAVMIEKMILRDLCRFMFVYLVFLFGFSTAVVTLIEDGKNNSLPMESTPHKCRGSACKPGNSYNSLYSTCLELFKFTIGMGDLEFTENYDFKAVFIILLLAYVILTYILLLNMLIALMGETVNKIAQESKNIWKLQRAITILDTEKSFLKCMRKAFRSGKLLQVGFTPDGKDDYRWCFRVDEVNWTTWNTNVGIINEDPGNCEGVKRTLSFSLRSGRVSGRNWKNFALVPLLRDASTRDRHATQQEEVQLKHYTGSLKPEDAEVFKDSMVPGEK

[37] = Aqueous solubility at pH 6.8 and 25 degC; type: physicochemical; details: aqueous medium
[38] = test system: Rattus norvegicus; assay: Concentration in rat brain at 1 mg/kg, iv after 0.16 hrs; type: ADME, organism-based, Wistar Han; design: dose 1 mg/kg, route intravenous; details: in vivo

`Cc1nc2cc(C(C)C)c(-c3ccc(Cl)c(OCC4CC4)c3)cc2c(=O)[nH]1` gave a concentration at 9 h [1] of 904 nM, a Ct [2] of 155 pmol/g and a concentration at 24 h [3] of 53 nM. It also gave a Ct [4] of 32 pmol/g, a Ct [5] of 211 pmol/g and a Ct [6] of 641 pmol/g. It also gave a Ct [7] of 951 pmol/g, a Ct [8] of 1364 pmol/g and a Ct [9] of 1666 pmol/g. For the same molecule, the Ct [10] was 1258 pmol/g, the Ct [11] was 249 pmol/g and the Ct [12] was under 125 pmol/g. For the same molecule, the Ct [13] was under 125 pmol/g, the concentration at 0.16 h [14] was 71 nM and the concentration at 0.5 h [15] was 1460 nM. It also gave a concentration at 1 h [16] of 2680 nM, a concentration at 1.5 h [17] of 3720 nM and a concentration at 2 h [18] of 4340 nM. It also gave a concentration at 4 h [19] of 5970 nM, a concentration at 6 h [20] of 3220 nM and a concentration at 9 h [21] of 2900 nM. The concentration at 18 h [22] was 583 nM, the concentration at 24 h [23] was 106 nM and the Ct [24] was 16.4 pmol/g. It also gave a Ct [25] of 181 pmol/g, a Ct [26] of 522 pmol/g and a Ct [27] of 1038 pmol/g. It also gave a Ct [28] of 1424 pmol/g, a Ct [29] of 1515 pmol/g and a Ct [30] of 1042 pmol/g. It also gave a Ct [31] of 811 pmol/g, a Ct [32] of 199 pmol/g and a Ct [33] of under 25 pmol/g. The concentration at 18 h [34] was 90 nM, the IC50 [35] was 50 nM and the IC50 [36] was 105 nM. For the same molecule, the solubility [37] was 0.8 µg/mL (≈ 2.09 µM) and the Ct [38] was 944 pmol/g.
